The conditions of data set [1]: cited from earlier work; for share of the urinary excretion products of fluvoxamine: 5 mg radiolabelled dose of fluvoxamine maleate, fluvoxamine acid value is together with its N-acetylated analog; for bound to plasma protein: mostly albumin, concentration range 20 to 2000 ng/mL.
Another data set concerns serotonin uptake. The conditions noted are these: in vitro, rats; cited from earlier work.
The conditions of data set [2]: cited from earlier work.
For the next data set, the system named is COVID-19. In words: Clinical study of oral dronabinol plus standard of care in COVID-19 patients hospitalized for hypoxia. The data set is classed as in vivo, human. As to conditions: for LOS: LOS = length of stay (days).
For data set [3] the following is noted: cited from earlier work. The source holds these as a separate data set.
The next data set addresses σ-1 non-opioid receptor (Homo sapiens, UniProt Q99720). As to conditions: cited from earlier work.
A further data set deals with serotonin reuptake. As to conditions: in vitro as well as in vivo; cited from earlier work.
Another data set relates to norepinephrine reuptake. The conditions noted are these: in vitro, rats; cited from earlier work.

The structures appear in SMILES notation. Counter-ions that a name gives are not always drawn. Like-named read-outs stand apart in the source and are kept apart here.

These results are taken from patent publication US20230263812A1, “Compositions and Methods for Treating COVID-19 and/or Acute Respiratory Failure and/or Acute Respiratory Distress Syndrome Using Tetrahydrocannabinol and Compositions Including Same” (priority 2020, published 2023).

Sequence of σ-1 non-opioid receptor (Q99720 whole entry): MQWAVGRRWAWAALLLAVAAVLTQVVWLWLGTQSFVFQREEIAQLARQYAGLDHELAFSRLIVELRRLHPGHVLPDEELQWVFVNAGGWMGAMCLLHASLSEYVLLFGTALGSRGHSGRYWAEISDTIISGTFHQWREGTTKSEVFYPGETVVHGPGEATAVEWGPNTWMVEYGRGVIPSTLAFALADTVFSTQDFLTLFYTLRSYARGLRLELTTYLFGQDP

For the molecule `NCCO/N=C(\CCCC(=O)O)c1ccc(C(F)(F)F)cc1` [fluvoxamine acid], the “share of the urinary excretion products of fluvoxamine” value in data set [1] was “about 60%”. Further, the “potency on serotonin uptake relative to the parent compound” value in the data set on serotonin uptake is reported as 1-2 orders of magnitude less potent.

For the molecule `CCCCCc1cc(O)c2c(c1)OC(C)(C)[C@@H]1CCC(C)=C[C@@H]21` [dronabinol, (−)-(6aR,10aR)-6,6,9-trimethyl-3-pentyl-6a,7,8,10a-tetrahydro-6H-benzo[c]-chromen-1-ol], in data set [2] (following single dose administration), the “time for which low levels of metabolites are detected in the urine and feces” value was “more than 5 weeks”. For the same molecule, in data set [2] (in vivo, po), the “radio-labeled oral dose recovered from the feces within 72 hours” value is “about half”. Besides, the “radio-labeled oral dose recovered from urine” value in data set [2] (in vivo, po) is 10-15%. Also, in data set [2] (oral), the “absorbed after single oral doses” value is recorded as 90-95%. Further, the plasma protein binding result in data set [2] (Δ9-THC and its metabolites) is “approximately 97%”. Moreover, the “survival rate” value is 88.9% in the data set with COVID-19 (2.5 mg dronabinol regimen); 89% with COVID-19 (2.5 mg group (2.5 mg twice orally daily)); 94.1% with COVID-19 (5 mg dronabinol regimen); 93.5% in the data set with COVID-19 (5 mg treated group (5 mg orally twice daily)); 93.5% with COVID-19 (all dronabinol-treated patients (77), standard of care alone 80%). In addition, the LOS with COVID-19 (2.5 mg dronabinol regimen) is recorded as 17.4; with COVID-19 (5 mg dronabinol regimen), 8.8. For the same molecule, the “# Survived” value with COVID-19 (2.5 mg dronabinol regimen, total 9 in group) worked out at 8; in the data set with COVID-19 (5 mg dronabinol regimen, total 68 in group) it was 64. Also, the Mortality rate in the data set on COVID-19 (hospitalized COVID-19 patients requiring oxygen supplementation, 2.5 mg or 5 mg dronabinol orally BID plus standard of care, 77 patients, untreated group 20.5%) amounted to 6.5%. The “average first peak C-reactive protein (CRP) levels, difference” value in the data set on COVID-19 (lower in the treatment group than untreated, p-value 0.07, not statistically significant) was determined as 14%. Moreover, the reduction in mortality with COVID-19 (treated group (77) versus untreated/control group (44), p-value 0.02) is on record as 68%. Moreover, in the data set with COVID-19 (treated group, untreated group 15.6 days), the “Length of stay in the hospital” value was found to be 9.9 days. The “reduction in length of stay” value in the data set on COVID-19 (treated versus untreated group, p-value 0.01) is recorded as 37%.

With `COCCCC/C(=N\OCCN)c1ccc(C(F)(F)F)cc1` [fluvoxamine maleate], in data set [1] (human, in vivo, po), the “effect of food on oral bioavailability” value is “not significantly affected by food”.

Regarding `COCCCC/C(=N\OCCN)c1ccc(C(F)(F)F)cc1` [fluvoxamine, 2-[(E)-[5-methoxy-1-[4-(trifluoromethyl)phenyl]pentylidene]amino]oxyethanamine], the “decrease in clearance in association with hepatic dysfunction” value in data set [3] (cross study comparison, healthy subjects versus patients with hepatic dysfunction) was 30%. In addition, the “clearance reduced in elderly patients” value in data set [3] (human, in vivo) is “about 50%”. In addition, the “agonistic sigma1 binding affinity, rank among agents tested” value on σ-1 non-opioid receptor is recorded as “strongest”. Further, the “mean apparent volume of distribution” value in data set [1] (human, in vivo) was “approximately 25 L/kg”; in data set [1] (human, in vivo, listed as Fluvoxamine), 25 L/kg. The results for the “bound to plasma protein” value in data set [1] and in data set [1] (listed as Fluvoxamine) were “Approximately 80%” and 80%, respectively. For the same molecule, the serotonin reuptake inhibition result with serotonin reuptake is given as “potent”.

Consider `COCCCC/C(=N\OCCO)c1ccc(C(F)(F)F)cc1` [fluvoxamine ethanol], for which the “share of the urinary excretion products of fluvoxamine” value in data set [1] was “about 10%”. In the data set with serotonin uptake, the “inhibition of serotonin uptake” value is “inactive”. Further, the norepinephrine reuptake inhibition entry in the data set with norepinephrine reuptake was “inactive”.
